Experiment: Chemical stability, ciclesonide related impurities by HPLC
Type: physicochemical
Conditions: 5 days at 50° C.
Protocol: MDI units from Example 2 were stored for 5 days at 50° C. in both valve-up and valve-down orientations (two units at each orientation). The samples were then tested for ciclesonide related impurities by High Performance Liquid Chromatography and the following results were obtained: […]

CC(C)C(=O)OCC(=O)[C@@]12O[C@H](C3CCCCC3)O[C@@H]1C[C@H]1[C@@H]3CCC4=CC(=O)C=C[C@]4(C)[C@H]3[C@@H](O)C[C@@]12C [ciclesonide, 11β, 16α, 17, 21-tetrahydroxypregna 1,4-diene-3,20-dione, cyclic 16,17-acetal with cyclohexanecarboxaldehyde, 21-isobutyrate]
chemical stability in the example formulation: high degree of chemical stability

— patent publication US20050207984A1, “Formoterol and ciclesonide aerosol formulations” (priority 2002, published 2005)
